Structures can show the parent of a compound that is named as a salt.
What was measured:
[1] = tested on: unilateral ureteral obstruction (UUO) RF animal model; test: Therapeutic effect of ACT004 in unilateral ureteral obstruction (UUO) renal fibrosis mouse model; type: in vivo; details: UUO mice
Description: (§1) Sixty 8-week-old C57 mice (SPF grade) were supplied by the Laboratory Animal Center of Zhujiang Hospital, Southern Medical University, Guangzhou. Before the experiment, the animals were acclimated to the indoor environment for 7 days at a room temperature of 18-22° C. and a relative humidity of 65%. All mice had free access to water and were fed with regular feed (protein content: 3.14 mg/g).
Method for constructing UUO model: Under anesthesia with intraperitoneal injection of tribromoethanol, the surgical area for abdominal midline incision was shaved and disinfected. After making the abdominal midline incision, the left ureter was located, and the upper segment of the ureter was isolated. A complete ureteral obstruction was induced by double ligation using 4-0 silk sutures (UUO group). For mice in the sham group, the ureter was similarly exposed and isolated, but no ligation was performed. Layered suturing of the abdominal incision was performed, followed by disinfection with iodophor. Mice subjected to UUO surgery were randomly divided into the following 5 groups: a UUO group, a UUO+low-dose ACT004 (12.5 mg/kg·d) group, a UUO+medium-dose ACT004 (25 mg/kg·d) group, a UUO+high-dose ACT004 (50 mg/kg·d) group, and a sham group, with 6 mice in each group. Starting from day 4 after the surgery, intragastric administration was performed. The sham group and the UUO groups were given an equal volume of normal saline as a control treatment. On day 11 after the surgery, the left kidney tissues were collected.
(§2) According to the results of the preliminary experiment, the medium dose of ACT004 for mice was 25 mg/kg·d. Therefore, low-dose (12.5 mg/kg·d), medium-dose (25 mg/kg·d) and high-dose (50 mg/kg·d) groups were set. ACT004 was prepared into a solution using normal saline, and intragastrically administered once daily starting on day 4 after the surgery for a duration of 1 week. Mice in the sham, UUO and IRI groups were subjected to intragastric administration with an equal amount of normal saline for a duration of 1 week.
(§3) After 1 week of intragastric administration, kidney tissues were collected as follows: Anesthesia was conducted using single intraperitoneal injection of tribromoethanol at a concentration of 200 mg/kg. Blood was collected by enucleation, and serum was separated and stored at −20° C. or −70° C. An abdominal incision was made, and sterile gauze was used to move aside abdominal organs. Cold PBS was perfused through the heart until the organs turned white. Kidney tissues were then collected. The entire left kidney was weighed, then bisected along the median sagittal plane, and washed thoroughly with PBS, and the capsule was removed. The tissue was then fixed in 10% neutral formaldehyde buffer for subsequent pathological examination.
(§4) 2.2.1.4.1 Renal pathology: Masson staining was used to observe the renal pathological structures and collagen fiber deposition.
(§5) 2.2.1.4.2 Protein level detection: Ras GTPase superfamily member RALB, EMT-related index a-SMA, and fibrosis phenotype-related indexes Fibronectin and Collagen I.

[2] = tested on: ischemia-reperfusion injury (IRI) RF animal model; test: Therapeutic effect of ACT004 in ischemia-reperfusion injury (IRI) renal fibrosis mouse model; type: in vivo; details: IRI mice
Description: as §1
Method for constructing IRI model: Mice were anesthetized intraperitoneally with tribromoethanol. An abdominal midline incision or dorsal incision was made. The left renal vein was isolated, while the renal artery was clamped using an arterial clip. The mice were placed on a constant-temperature pad at 37.5° C. for 30 min, and the incision was covered with PBS-moistened gauze. After 30 min, the arterial clip was released, and the abdomen was closed after the recovery of renal congestion was observed. Mice subjected to IRI surgery were randomly divided into the following 5 groups: an IRI group, an IRI+low-dose ACT004 (12.5 mg/kg·d) group, an IRI+medium-dose ACT004 (25 mg/kg·d) group, an IRI+high-dose ACT004 (50 mg/kg·d) group, and a sham group, with 6 mice in each group. Starting from day 4 after the surgery, intragastric administration was performed. The sham group and the IRI groups were given an equal volume of normal saline as a control treatment. On day 10 after the surgery, the right kidney was removed, and on day 11 day after the surgery, the left kidney tissues were collected.
as §2, §3, §4, §5

[3] = tested on: renal tubular epithelial cells (NRK); test: Effect of ACT004 on TGF-β1-induced EMT in renal tubular epithelial cells; type: cell-based, mouse
Description: The immortalized mouse-derived renal tubular epithelial cell line was provided by the Professor Nie Xiaoli's research team at the School of Traditional Chinese Medicine, Southern Medical University.
The addition of TGF-β1 was accompanied by the administration of different concentrations of ACT004 intervention (2.5 μM, 5 μM, and 10 μM). The cells were divided into the following 6 groups: a blank control group, a blank control+ACT004 (5 μM) group, a TGF-β1 model group, and groups for TGF-β1+ different concentrations of ACT004 intervention (2.5 μM, 5 μM, and 10 µM).
Protein level detection: Ras GTPase superfamily member RALB, EMT-related index α-SMA, and fibrosis phenotype-related indexes Fibronectin and Collagen I.

[4] = ACT004 12.5, 25, 50 mg/kg·d intragastric once daily from day 4 for 1 week, left kidney day 11, FIG. 1A
[5] = ACT004 intragastric 1 week, FIG. 1B
[6] = ACT004 intragastric 1 week, FIG. 1C, statistically significant (p<0.05)
[7] = ACT004 treatment groups, FIG. 3A

**Q.** Which “Masson staining: renal interstitial expansion, extracellular matrix deposition, increased collagen fibers, inflammatory cell infiltration” value [1, 4] does the source give for `C/C1=C\[C@H]2OC(=O)[C@H](CN3CCN(C)CC3)[C@@H]2CC[C@]2(C)O[C@H]2CCC2=C[C@H](C1)OC2=O` [ACT004, (1aS,4Z,7S,9E,10aS,13S,13aS,15aS)-9,15a-dimethyl-13-((4-methylpiperazin-1-yl)methyl)-1a,2,3,8,10a,13,13a,14,15,15a-decahydro-5H-4,7-(metheno) furo [2,3-f]oxireno [2,3-j][1]oxacyclopentadecine-5, 12 (7H)-dione fumarate] here?
**A.** significantly reduced

**Q.** What about the “Immunohistochemical staining: expression of Fibronectin, Collagen I, and α-SMA in kidney tissue” value [1, 5] of the same molecule?
**A.** inhibitory effect

**Q.** What about the “Western blot: protein expression levels of Fibronectin, Collagen I, and α-SMA in kidney tissue” value [1, 6] of the same molecule?
**A.** inhibit the progression of RF

**Q.** What about the “Western blot: expression levels of p-Smad2, p-Smad3, p-Stat3, and p-NFκB in kidney tissues” value ([1]; ACT004 treatment groups, FIG. 2A) of the same molecule?
**A.** significantly reduced

**Q.** What about the “Western blot: expression level of RALB in kidney tissues” value [1, 7] of the same molecule?
**A.** significantly reduced

**Q.** And the “Masson staining: renal interstitial expansion, extracellular matrix deposition, increased collagen fibers, inflammatory cell infiltration” value [2, 4]?
**A.** significantly reduced

**Q.** What about the “Immunohistochemical staining: expression of Fibronectin, Collagen I, and α-SMA in kidney tissue” value [2, 5] of the same molecule?
**A.** inhibitory effect

**Q.** And the “Western blot: protein expression levels of Fibronectin, Collagen I, and α-SMA in kidney tissue” value [2, 6]?
**A.** inhibit the progression of RF

**Q.** And the “Western blot: expression levels of p-Smad2, p-Smad3, p-Stat3, and p-NFκB in kidney tissues” value ([2]; ACT004 treatment groups, FIG. 2B)?
**A.** significantly reduced

**Q.** What about the “Western blot: expression level of RALB in kidney tissues” value [2, 7] of the same molecule?
**A.** significantly reduced

**Q.** What about the “Western blot: protein expression levels of Fibronectin, Collagen I, and α-SMA in TGFβ1-induced renal tubular epithelial cells” value ([3]; TGF-β1 10 ng/uL, 48 h, ACT004 2.5, 5, 10 μM, FIG. 1D, statistically significant (p<0.05)) of the same molecule?
**A.** inhibit the progression of RF

**Q.** And the “Western blot: expression levels of p-Smad2, p-Smad3, p-Stat3, and p-NFκB in renal tubular epithelial cells induced by TGF-β1” value ([3]; different concentrations of ACT004, TGF-β1 induction for 1 h, FIG. 2C, statistically significant)?
**A.** reduced
